Laboratory results taken from the pKa sets of Baltruschat and Czodrowski (2020).

Conditions: acidic group

| pKa | Compound |
| --- | --- |
| 6.87 | Cc1ccc(O)c(Cc2cc(C)cc([N+](=O)[O-])c2O)c1 |
| 4 | CC(C)C1CC(CC(=O)O)[NH2+]C1C(=O)[O-] (stereo unspecified) |
| 3.75 | NC(=O)c1ccccc1C(=O)O |
| 5.07 | COc1ccc2c(c1)nnn2O |
| 6.3 | C[NH+](C)Cc1cc(C(C)(C)C)cc(C[NH+](C)C)c1O |
| 8.2 | CCOC(=O)Nc1nnc(-c2ccccc2)s1 |
| 2.96 | [NH3+]CCC(=O)NC(Cc1c[nH]c[nH+]1)C(=O)O (stereo unspecified) |
| 6.68 | CC(C)c1cccc(=O)c(O)c1Br |
| 2.28 | O=P(O)(O)C([NH2+]Cc1ccc[nH+]c1)c1ccccc1O (stereo unspecified) |
| 8.94 | Cc1nc(-c2ccccc2)oc1O |
| 7.95 | O=C([O-])C(CO)[NH2+]Cc1cc(Cl)ccc1O (stereo unspecified) |
| 5.01 | CC(=O)c1ccc(O)c(=O)cc1 |
| 2.45 | O=C(O)C(F)c1ccccc1 (stereo unspecified) |
| 4.6 | COc1ccc(/C=C/C(=O)O)cc1 |
| 0.32 | C[n+]1ccccc1O |
| 10.8 | CN1C(=O)C(C)(C)NC1=S |
| 3.99 | Cc1cc(C(=O)O)n[nH]1 |
| 10.4 | [S-]c1ncc2nc[nH]c2n1 |
| 7.91 | O=S(=O)(Nc1ccc(Cl)cc1)c1ccccc1 |
| 12.2 | NC1=NS(=O)(=O)[N-]c2nc[nH]c21 |
| 10.1 | Cc1cc(C)cc(O)c1 |
| 10.8 | Oc1ccccc1CN1CCCC1 |
| 2 | NC(=O)Nc1[nH]c[nH+]c1C(=O)O |
| 3.34 | CN(C)C(=S)SCC(=O)O |
| 11.1 | CCOC(=O)C(Cc1ccc([N+](=O)[O-])cc1)C(C)=O (stereo unspecified) |

| pKa | Compound |
| --- | --- |
| 3.89 | O=C(O)Cc1ccc(Cl)s1 |
| 2.82 | OCCNC(=S)S |
| 3 | O=C(O)c1cccnn1 |
| 8.36 | CC(=O)N(O)c1ccccc1 |
| 4.35 | CCOC(=O)C1(CCC(=O)O)CCC(=O)NC1=O (stereo unspecified) |
| 12.6 | Nc1ccc(C(=O)[O-])c2ncccc12 |
| 6.02 | COc1c(Cl)cc(Cl)c(O)c1C(=O)NC1CC[NH+](C)CC1 |
| 9.77 | COC(=O)CC(=N/O)/C(C)=N/O |
| 5.96 | O=c1ccccc(Br)c1O |
| 2.58 | Oc1cc[n+](OCc2ccccc2)cc1 |
| 6.5 | CCC1C(=O)c2ccccc2C1=O |
| 6.81 | CC(=O)NOC(C)=O |
| 10.3 | O=C(Oc1ccc(Cl)cc1)C1c2ccccc2-c2ccccc21 |
| 6.95 | O=c1[nH]ccc2nnnn12 |
| 2.7 | Cc1cccc(I)c1C(=O)O |
| 8.31 | C[N+](C)(C)CCC[N+](C)(C)CCCNC(=O)/C=N/O |
| 10.2 | Nc1ncnc2cn[nH]c12 |
| 9.91 | C=Cc1ccc(O)cc1 |
| 8.83 | Oc1cc(O)cc(O)c1 |
| 7.56 | [O-]c1[nH+]c(O)nc2nc[nH]c12 |
| 6.3 | c1ccc(Nc2nnn[nH]2)cc1 |
| 4.98 | COc1cnc(N)s1 |
| 8.49 | COc1cc(S(C)=O)ccc1-c1nc2cnncc2[nH]1 (stereo unspecified) |
| 2.93 | O=C(O)c1ccccc1I |
| 1.26 | O=CC(=O)O |

| pKa | Compound |
| --- | --- |
| 4.29 | O=C(O)/C=C/c1ccco1 |
| 10.2 | CC(=O)C(Cc1ccc(Cl)cc1)C(C)=O |
| 6.63 | NS(=O)(=O)c1ccc(/N=C/c2ccccc2O)cc1 |
| 4.33 | C[N+]1(CCCCC(=O)O)CCCCC1 |
| 10.6 | CCCCCCCCCc1c(O)n[nH]c1-c1ccccc1 |
| 4.49 | COc1cc(OC)c2c(c1Cl)O[C@]1(C(=O)CC(=O)C[C@@H]1C)C2=O |
| 5.3 | CCC1C(=O)C=C(C)OC1=O (stereo unspecified) |
| 3.1 | CCNc1cc[nH+]c(S)n1 |
| 9.3 | O=C(NO)[C@@H]1[C@H](C(=O)NO)[C@@H]2CC[C@H]1O2 |
| 8.25 | Cc1cc(O)cc(C)c1[N+](=O)[O-] |
| 4.18 | Cc1ccc(C(=O)O)c(C)c1 |
| 12.8 | Nc1nc2cc3ccccc3cc2[nH]1 |
| 3.92 | Cc1ccccc1C(=O)O |
| 5.7 | CCC1(CC)OC(=O)NC1=O |
| 7.12 | COc1cc(OC)nc(NS(=O)(=O)c2ccc(N)cc2)n1 |
| 1.41 | O=C(O)c1ccc([N+](=O)[O-])c2cccnc12 |
| 4.18 | O=C(O)c1ccc(CO)cc1 |
| 6.76 | COc1ccc(S)cc1 |
| 2.01 | C=C(C)[C@H]1C[NH2+][C@H](C(=O)O)[C@H]1CC(N)=O |
| 6.8 | CCC(=O)NOC(=O)/C=C/c1ccccc1 |
| 3.76 | CC(C)(O)C(C(=O)O)c1ccc(-c2ccccc2)cc1 (stereo unspecified) |
| 11.2 | [O-]c1nc(C(F)(F)F)nc2nc[nH]c12 |
| 5.15 | CC(=O)C(C)[N+](=O)[O-] (stereo unspecified) |
| 11.6 | Nc1c([O-])cccc1O |
| 3.33 | O=C(O)c1ccc(Cl)c([N+](=O)[O-])c1 |

| Compound | pKa |
| --- | --- |
| Nc1nc[nH]n1 | 10.7 |
| Cc1ccccc1[Se]CC(=O)O | 3.79 |
| Cc1cccc(C(=O)O)c1O | 3.02 |
| [NH3+][C@H]1CCC[C@H](C(=O)O)C1 | 3.85 |
| [O-]c1ccccc1-c1ccccc1O | 14.7 |
| CCNc1nnn[nH]1 | 6.12 |
| O=C([O-])[C@@H](P)CC[C@H](P)C(=O)O | 4.41 |
| [NH3+][C@H]1CCC[C@@H](C(=O)O)C1 | 3.7 |

Same assay, conditions: basic group

| Compound | pKa |
| --- | --- |
| C/C(=C\C=C\C(C)C(=O)[O-])[C@H]1CN[C@H](C(=O)[O-])[C@H]1CC(=O)[O-] (stereo partly specified) | 9.82 |
| C=C[C@]1(O)C[C@@H](C)N[C@@H]2CCCC[C@H]21 | 9.98 |
| Nc1nc[nH]n1 | 4.3 |
